# Entries after “also recorded” stand apart in the source; their conditions may differ.
# Legend:
# [1] = system: C. albicans; details: cited from earlier work
# [2] = system: C. albicans CAF2-1 wild-type strain; assay: Optical nanomotion detection (ONMD), amphotericin B dose-response; type: cell-based, Candida albicans
# Text: (§1) To track single cells, in the present example a cross-correlation image registration algorithm was used. The method was documented to efficiently track subtle modifications of keratin networks in living cells and displacements of myoblasts. The algorithm is based on the initial estimation of the cross-correlation peak between the first and every subsequent frame. […] Our program calculates the cell displacement for each frame and saves the trajectories of tracked cells as well as the root mean square of the displacement to an MS Excel file.
# (§2) The cellular x-y movements were monitored by recording 12 s long movies (1000 frames) taken at a magnification of 400× (FIG. 13). By periodically recording these movies, temporal behavior of the cells was characterized as a function of different chemical and physical stimuli (FIG. 13A-B). To track the cellular movements of single cells, we used a cross-correlation image registration algorithm. The algorithm is based on the initial estimation of the cross-correlation peak between the first and every subsequent frame. It provides a numerical value for the image translation with a sub-pixel (sub-μm) resolution. The cell displacement for each frame, the trajectories of tracked cells (FIG. 13C) as well as the root mean square of the total displacement (FIG. 13F) were calculated. Single cell nanomotions were characterized by plotting the distribution of the displacements per frame as a violin plot (FIG. 13D). The movements of the set of 20 cells were characterized by plotting grouped cellular displacements per frame as violin plots and the total displacements of 20 cells over 1000 frames as box-and-whisker plots (FIG. 13E).
# (§3) Ten μl of each yeast cell culture was dispensed in one of the microwells, using a 4 Well FulTrac micro-Insert (ibidi, Germany) in an imaging micro-dish (Ibidi, Germany). The yeast cells were allowed to sediment for a period of 10 min before starting the measurement. The movement of cells was observed by taking movies of 1000 frames with a framerate of 84 fps using an EMCCD camera (Andor iXon, Oxford Instruments) using a Nikon TE-2000 microscope with a 40× objective. The Petri dish was kept at 30° C. using a microscope stage top incubator (ibidi, Germany).
# The effect of ethanol on the viability of the cells was compared with cells grown in YPD medium as a reference. Therefore, first cell nanomotion videos were recorded and next (after approximately 1 min), 200 μl of ethanol (70% v/v) was added to the top chamber of the 4 micro-Insert wells. Videos were recorded every hour during a period of 5 h. Caspofungin, amphotericin B and fluconazole were used as antifungals in the antifungal susceptibility testing, i.e. to assess their effect on cell viability. Before starting the treatment with the antifungal, reference (no treatment) videos were recorded of yeast cells in YPD medium (time=0 h). Then (at time=1 min) 200 μl of a certain concentration of antifungal was added to the chamber (200 μl) above the 4 microwells. Measurements were taken every hour during a period of 5 h. […]
# (§4) The optical nanomotion detection algorithm calculates the cell displacement for each frame and saves the trajectories of tracked cells as well as the root mean square of the displacement to a MS Excel file. […] The Python package nd2 reader (Verweij R, Online: http://www.lighthacking.nl/nd2reader/) was employed to import the videos in the ND2 Nikon format.
# [3] = system: Candida lusitaniae DSY4590; details: FKS1 S638Y, erg4; ref [7] unpublished; cited from earlier work
# [4] = system: C. albicans DSY294; assay: Optical nanomotion detection (ONMD) of free yeast cells, antifungal susceptibility test; type: cell-based, Candida albicans
# Text: as §1, §2, §3
# (§5) The effect of ethanol on the viability of the cells was compared with cells grown in YPD medium as a reference. Therefore, first cell nanomotion videos were recorded and next (after approximately 1 min), 200 μl of ethanol (70% v/v) was added to the top chamber of the 4 micro-Insert wells. Videos were recorded every hour during a period of 5 h. Caspofungin, amphotericin B and fluconazole were used as antifungals in the antifungal susceptibility testing, i.e. to assess their effect on cell viability. Before starting the treatment with the antifungal, reference (no treatment) videos were recorded of yeast cells in YPD medium (time=0 h). Then (at time=1 min) 200 μl of a certain concentration of antifungal was added to the chamber (200 μl) above the 4 microwells. Measurements were taken every hour during a period of 5 h. As abiotic reference particles, silica microbeads (monodisperse silica standard, Whitehouse Scientific) with a diameter of 3 μm were used. The beads were dissolved in YPD medium and the measurements were performed at 30° C.
# (§6) The optical nanomotion detection algorithm calculates the cell displacement for each frame and saves the trajectories of tracked cells as well as the root mean square of the displacement to a MS Excel file. The main part of the program is based on the algorithm of Guizar-Sicairos et al.[14], ported from Matlab to Python in the open source image processing library sci-kit image. The Python package nd2 reader (Verweij R, Online: http://www.lighthacking.nl/nd2reader/) was employed to import the videos in the ND2 Nikon format.
# [5] = system: C. lusitaniae DSY4606; assay: Optical nanomotion detection (ONMD) of free yeast cells; type: cell-based, Candida lusitaniae
# Text: as §1, §2
# (§7) Ten μl of each yeast cell culture was dispensed in one of the microwells, using a 4 Well FulTrac micro-Insert (ibidi, Germany) in an imaging micro-dish (Ibidi, Germany). The yeast cells were allowed to sediment for a period of 10 min before starting the measurement. […]
# (§8) The effect of ethanol on the viability of the cells was compared with cells grown in YPD medium as a reference. Therefore, first cell nanomotion videos were recorded and next (after approximately 1 min), 200 μl of ethanol (70% v/v) was added to the top chamber of the 4 micro-Insert wells. Videos were recorded every hour during a period of 5 h. […] Before starting the treatment with the antifungal, reference (no treatment) videos were recorded of yeast cells in YPD medium (time=0 h). […]
# as §4
# [6] = system: C. lusitaniae DSY4590 (resistant clinical strain); assay: as above; type: cell-based, Candida lusitaniae; details: caspofungin 10 μg/ml; FIG. 4b left panel
# Text: as §1, §2, §7, §8, §4
# [7] = system: C. glabrata DSY562; assay: as above; type: cell-based, Candida glabrata
# Text: as §1, §2, §7, §8, §4
# [8] = system: S. cerevisiae BY4742; assay: as above; type: cell-based, Saccharomyces cerevisiae
# Text: as §1, §2, §3, §5, §6
# [9] = system: C. albicans DSY4614 (candin-resistant clinical strain); assay: Optical nanomotion detection (ONMD) of free yeast cells, antifungal susceptibility test; type: cell-based, Candida albicans
# Text: as §1, §2, §3, §5, §6
# [10] = system: C. albicans DSY1024 (hypersusceptible, mutant for efflux systems); assay: as above; type: cell-based, Candida albicans
# Text: as §1, §2, §3, §5, §6
# [11] = system: S. cerevisiae; details: cited from earlier work
# [12] = system: S. cerevisiae; details: cited from earlier work; remark: listed apart in the source
# [13] = system: osteoblasts; details: AFM-cantilever method; cited from earlier work
# [14] = caspofungin treated, pooled from 1-5-hour treatments, FIG. 7d
# [15] = caspofungin 10 μg/ml, surface-attached cells, FIG. 6, 18F-K
# [16] = ethanol 70% v/v, ten minutes after addition and diffusive mixing, t-test
# [17] = ethanol 70%, ten minutes after addition
# [18] = ethanol 70%, Wilcoxon test, FIG. 15
compound,measurement,setting,value
C[C@@H]1[C@H](O)[C@@H](C)/C=C/C=C/C=C/C=C/C=C/C=C/C=C/[C@H](O[C@@H]2O[C@H](C)[C@@H](O)[C@H](N)[C@@H]2O)C[C@@H]2O[C@](O)(C[C@@H](O)C[C@@H](O)[C@H](O)CC[C@@H](O)C[C@@H](O)CC(=O)O[C@H]1C)C[C@H](O)[C@H]2C(=O)O [amphotericin B],"reported amphotericin B MIC value, classical microtitre plate method","[1]; 'this strain' (CAF2-1 or DSY294, not clear)",0.3 µg/mL
same,reported amphotericin B MIC value,[1]; C. albicans DSY strains,0.5 µg/mL
same,"concentration at which the cellular nanomotion is increased, as multiple of MIC",[2],around 10 times the MIC
same,concentration at which the mean total displacement increased,"[2]; after 1 h treatment, FIG. 2g",10 µg/mL
same,concentration at which the mean total displacement increased,"[2]; after 2 h treatment, FIG. 2h",4 µg/mL
same,mean total displacement at higher drug concentrations,[2]; concentrations above 10 μg/ml (1 h) or 4 μg/ml (2 h),decreased
same,MIC value detected by ONMD (lowest concentration where a change in nanomotion can be observed),"[2]; total displacement of 20 cells, 'this strain'",1 to 4 µg/mL
same,susceptibility of the strain (characteristics),[3],"FKS1, S638Y, erg4 Resistant"
same,"concentration at which the cellular nanomotion is increased, as multiple of MIC",[4],around 10 times the MIC
same,concentration at which the total displacement shows an increase,"[4]; after 1 h treatment, FIG. 16F",10 µg/mL
same,increase of total displacement after 2 h treatment,"[4]; after 2 h treatment, FIG. 16G",the increase is reduced
same,nanomotion signal after 1 h treatment,"[4]; amphotericin B 100 μg/ml, 1 h, FIG. 2d",decreased to values close to those recorded on dead cells
same,time of treatment after which a significant decrease in the mean total displacement was detected,"[4]; amphotericin B 100 μg/ml, t-test, FIG. 2d",1 h
same,time of treatment after which a significant decrease in cellular displacements and total displacement was detected,"[4]; amphotericin B 500 μg/ml, FIG. 16A, 20A",1 h
same,"cellular nanomotion after 1 h treatment, whole set of 20 cells","[4]; amphotericin B at a high concentration (500 μg/ml), 1 h, FIG. 20A",decreased to values close to those recorded on dead cells
CC[C@H](C)C[C@H](C)CCCCCCCCC(=O)N[C@H]1C[C@@H](O)[C@@H](NCCN)NC(=O)[C@@H]2[C@@H](O)CCN2C(=O)[C@H]([C@H](O)CCN)NC(=O)[C@H]([C@H](O)[C@@H](O)c2ccc(O)cc2)NC(=O)[C@@H]2C[C@@H](O)CN2C(=O)[C@H]([C@@H](C)O)NC1=O [caspofungin],killing of cells judged by nanomotion,"[5]; caspofungin 10 μg/ml, FIG. 4b right panel",killed
same,effect of treatment on nanomotion,[6],not affected
same,time of treatment after which the cells were dead (nanomotion AFST),"[7]; caspofungin, FIG. 4a",2 h
same,time of treatment after which a significant decrease of the total displacement was observed,"[8]; caspofungin 10 μg/ml, FIG. 5a",3 h
same,effect on nanomotion,"[9]; caspofungin 10 μg/ml, FIG. 2e, 16E",did not affect the nanomotion
same,"total displacement of cells attached to concanavalin A coated glass, treated versus untreated","[9]; caspofungin 10 μg/ml, surface-attached cells, FIG. 6",no significant decrease of the total displacement
same,critical frequency (fcrit) distribution of treated cells,[9]; [14],broadening of their fcrit
same,killing of cells judged by nanomotion,"[10]; caspofungin 10 μg/ml, FIG. 2f, 16D",did kill
same,"total displacement of cells attached to concanavalin A coated glass, treated versus untreated",[10]; [15],no significant decrease of the total displacement; also recorded: no significant difference
same,additional fcrit of treated cells,[10]; [14],around 2 Hz
same,"critical frequency (fcrit) distribution of treated cells, extent of broadening",[10]; [14],most extended
same,"total displacement of cells attached to concanavalin A coated glass, treated versus untreated",[4]; [15],no significant decrease of the total displacement; also recorded: no significant difference
same,time of treatment after which a significant decrease in (mean) total displacement was detected,"[4]; caspofungin 100 μg/ml, FIG. 2d, 16B",1 h
same,critical frequency (fcrit) distribution of treated cells,[4]; [14],broadening of their fcrit
CCO [ethanol],"higher ethanol concentrations that impair the cell membrane integrity, eventually apoptotic cell death",[11],> 10%
same,moderate ethanol concentrations that affect the growth rate,[11],5-7%
same,change of total displacement,[5]; [16],significant (t-test) decrease
same,displacements in the set of 20 cells,[5]; [17],reduction of the displacements
same,change of total displacement,[7]; [16],significant (t-test) decrease
same,time after which a significant decrease of the total displacement was observed,[7]; [18],60 min
same,displacements in the set of 20 cells,[7]; [17],reduction of the displacements
same,change of total displacement,[8]; [16],significant (t-test) decrease
same,time after which a significant decrease of the total displacement was observed,[8]; [18],60 min
same,displacements in the set of 20 cells,[8]; [17],reduction of the displacements
same,time of treatment after which a significant decrease of the total displacement was measured,"[4]; ethanol 70% v/v, t-test, FIG. 2c",60 min
same,displacements in the set of 20 cells,[4]; [17],reduction of the displacements
OC(Cn1cncn1)(Cn1cncn1)c1ccc(F)cc1F [fluconazole],fluconazole MIC value,[12],1 to 8 µg/mL
same,effect on total displacement after 1 h of treatment,"[8]; fluconazole 400 μg/ml, 1 h, FIG. 5b",no effect
same,time of treatment after which a significant decrease in total displacement was obvious,"[8]; fluconazole 400 μg/ml, FIG. 5b",5 h
same,time of treatment after which a significant decrease in (mean) total displacement was detected,"[4]; fluconazole 400 μg/ml, FIG. 2d, 16C",1 h
cytochalasin,cellular movement after depolymerizing the actin cytoskeleton,[13],reduced cellular movement

# Reference: US12222275B2, “Methods and systems for particle characterisation by imaging free-floating particle movement in liquid enviornment” (VRIJE UNIVERSITEIT BRUSSEL, priority 2019, dated 2025)
